Assays:
[1] = system: PC-3 prostate cancer cell line; assay: SRB assay cell viability, PC-3 prostate cancer cell line; assay type: cell-based, human; conditions: Homo sapiens, PC-3 prostate cancer cell line, Table II prints no unit, μM printed, read-out: SRB assay: 50% inhibition of cancer cell proliferation of sample concentration (IC50) of PC-3 prostate cancer cell line
[2] = system: HL-60, TB; assay: NCI one-dose screening, leukemia HL-60, TB; assay type: cell-based, human; conditions: 10 μM
[3] = system: MOLT-4; assay: NCI one-dose screening, leukemia MOLT-4; assay type: cell-based, human; conditions: 10 μM
[4] = system: SR; assay: NCI one-dose screening, leukemia SR; assay type: cell-based, human; conditions: 10 μM
[5] = system: PRMI-8226 cell line; assay: NCI one-dose screening, leukemia PRMI-8226; assay type: cell-based, human; conditions: 10 μM
[6] = system: K562cell line; assay: NCI one-dose screening, leukemia K562; assay type: cell-based, human; conditions: 10 μM
[7] = system: EKVX; assay: NCI one-dose screening, non-small cell lung cancer EKVX; assay type: cell-based, human; conditions: 10 μM
[8] = system: HOP-62; assay: NCI one-dose screening, non-small cell lung cancer HOP-62; assay type: cell-based, human; conditions: 10 μM
[9] = system: HOP-92; assay: NCI one-dose screening, non-small cell lung cancer HOP-92; assay type: cell-based, human; conditions: 10 μM
[10] = system: NCI-H226; assay: NCI one-dose screening, non-small cell lung cancer NCI-H226; assay type: cell-based, human; conditions: 10 μM
[11] = system: NCI-H23; assay: NCI one-dose screening, non-small cell lung cancer NCI-H23; assay type: cell-based, human; conditions: 10 μM
[12] = system: NCI-H460; assay: NCI one-dose screening, non-small cell lung cancer NCI-H460; assay type: cell-based, human; conditions: 10 μM
[13] = system: NCI-H522; assay: NCI one-dose screening, non-small cell lung cancer NCI-H522; assay type: cell-based, human; conditions: 10 μM
[14] = system: A549/ATCC; assay: NCI one-dose screening, non-small cell lung cancer A549/ATCC; assay type: cell-based, human; conditions: 10 μM
[15] = system: COLO 205; assay: NCI one-dose screening, colon cancer COLO 205; assay type: cell-based, human; conditions: 10 μM
[16] = system: HCC-2998; assay: NCI one-dose screening, colon cancer HCC-2998; assay type: cell-based, human; conditions: 10 μM
[17] = system: HCT-116; assay: NCI one-dose screening, colon cancer HCT-116; assay type: cell-based, human; conditions: 10 μM
[18] = system: HCT-15; assay: NCI one-dose screening, colon cancer HCT-15; assay type: cell-based, human; conditions: 10 μM
[19] = system: KM12; assay: NCI one-dose screening, colon cancer KM12; assay type: cell-based, human; conditions: 10 μM
[20] = system: HT29; assay: NCI one-dose screening, colon cancer HT29; assay type: cell-based, human; conditions: 10 μM
[21] = system: SF-268; assay: NCI one-dose screening, CNS cancer SF-268; assay type: cell-based, human; conditions: 10 μM
[22] = system: SF-539; assay: NCI one-dose screening, CNS cancer SF-539; assay type: cell-based, human; conditions: 10 μM
[23] = system: SNB-19; assay: NCI one-dose screening, CNS cancer SNB-19; assay type: cell-based, human; conditions: 10 μM
[24] = system: SNB-75; assay: NCI one-dose screening, CNS cancer SNB-75; assay type: cell-based, human; conditions: 10 μM
[25] = system: U251; assay: NCI one-dose screening, CNS cancer U251; assay type: cell-based, human; conditions: 10 μM
[26] = system: LOX IMVI; assay: NCI one-dose screening, melanoma LOX IMVI; assay type: cell-based, human; conditions: 10 μM
[27] = system: MALME-3M; assay: NCI one-dose screening, melanoma MALME-3M; assay type: cell-based, human; conditions: 10 μM
[28] = system: M14; assay: NCI one-dose screening, melanoma M14; assay type: cell-based, human; conditions: 10 μM
[29] = system: UACC-62; assay: NCI one-dose screening, melanoma UACC-62; assay type: cell-based, human; conditions: 10 μM
[30] = system: UACC-257; assay: NCI one-dose screening, melanoma UACC-257; assay type: cell-based, human; conditions: 10 μM
[31] = system: SK-MEL-2; assay: NCI one-dose screening, melanoma SK-MEL-2; assay type: cell-based, human; conditions: 10 μM
[32] = system: SK-MEL-28; assay: NCI one-dose screening, melanoma SK-MEL-28; assay type: cell-based, human; conditions: 10 μM
[33] = system: SK-MEL-5; assay: NCI one-dose screening, melanoma SK-MEL-5; assay type: cell-based, human; conditions: 10 μM
[34] = system: IGROV1; assay: NCI one-dose screening, ovarian cancer IGROV1; assay type: cell-based, human; conditions: 10 μM
[35] = system: OVCAR-3; assay: NCI one-dose screening, ovarian cancer OVCAR-3; assay type: cell-based, human; conditions: 10 μM
[36] = system: OVCAR-5; assay: NCI one-dose screening, ovarian cancer OVCAR-5; assay type: cell-based, human; conditions: 10 μM
[37] = system: OVCAR-8; assay: NCI one-dose screening, ovarian cancer OVCAR-8; assay type: cell-based, human; conditions: 10 μM
[38] = system: SK-OV-3; assay: NCI one-dose screening, ovarian cancer SK-OV-3; assay type: cell-based, human; conditions: 10 μM
[39] = system: 786-O; assay: NCI one-dose screening, renal cancer 786-O; assay type: cell-based, human; conditions: 10 μM
[40] = NCI one-dose screening, renal cancer A489; assay type: cell-based, human; conditions: 10 μM
[41] = system: ACHN; assay: NCI one-dose screening, renal cancer ACHN; assay type: cell-based, human; conditions: 10 μM
[42] = system: SN12C; assay: NCI one-dose screening, renal cancer SN12C; assay type: cell-based, human; conditions: 10 μM
[43] = system: TK-10; assay: NCI one-dose screening, renal cancer TK-10; assay type: cell-based, human; conditions: 10 μM
[44] = system: UO-31; assay: NCI one-dose screening, renal cancer UO-31; assay type: cell-based, human; conditions: 10 μM
[45] = system: RXF, 393; assay: NCI one-dose screening, renal cancer RXF, 393; assay type: cell-based, human; conditions: 10 μM
[46] = system: DU145; assay: NCI one-dose screening, prostate cancer DU145; assay type: cell-based, human; conditions: 10 μM
[47] = system: PC-3; assay: NCI one-dose screening, prostate cancer PC-3; assay type: cell-based, human; conditions: 10 μM
[48] = system: MCF7; assay: NCI one-dose screening, breast cancer MCF7; assay type: cell-based, human; conditions: 10 μM
[49] = system: HS 578-T; assay: NCI one-dose screening, breast cancer HS 578-T; assay type: cell-based, human; conditions: 10 μM; Breast cancer
[50] = system: MDA-MB-231/ATCC; assay: NCI one-dose screening, breast cancer MDA-MB-231/ATCC; assay type: cell-based, human; conditions: 10 μM
[51] = system: MDA-MB-468; assay: NCI one-dose screening, breast cancer MDA-MB-468; assay type: cell-based, human; conditions: 10 μM
[52] = system: NCl/ADR-RES; assay: NCI one-dose screening, breast cancer NCl/ADR-RES; assay type: cell-based, human; conditions: 10 μM; listed under Ovarian cancer
[53] = system: BT-549; assay: NCI one-dose screening, breast cancer BT-549; assay type: cell-based, human; conditions: 10 μM
[54] = system: T-47D; assay: NCI one-dose screening, breast cancer T-47D; assay type: cell-based, human; conditions: 10 μM
[55] = system: MDA, -MB-435; assay: NCI one-dose screening, breast cancer MDA, -MB-435; assay type: cell-based, human; conditions: 10 μM; listed under Melanoma
[56] = system: human tumor cell lines; assay: NCI one-dose screening, Mean / Delta / Range of growth percent over all tested cell lines; assay type: cell-based; conditions: 10 μM

## COc1cccc(Sc2cc3c(c4nsnc24)C(=O)c2ccccc2C3=O)c1 [C46, 4-(3-methoxy-phenyl-thio)anthra[2,1-c] [1,2,5]thiadiazol-6,11-dione]
[1]
  IC50: > 15 µM
[2]
  Growth Percent HL-60(TB): 84.53%
[3]
  Growth Percent MOLT-4: 35.83%
[4]
  Growth Percent SR: 36.14%
[5]
  Growth Percent RPMI-8226: 52.03%
[6]
  Growth Percent K562: 38.52%
[7]
  Growth Percent EKVX: 104.94%
[8]
  Growth Percent HOP-62: 61.81%
[9]
  Growth Percent HOP-92: 100.52%
[10]
  Growth Percent NCI-H226: 95.26%
[11]
  Growth Percent NCI-H23: 76.42%
[12]
  Growth Percent NCI-H460: 100.27%
[13]
  Growth Percent NCI-H522: 82.41%
[14]
  Growth Percent A549/ATCC: 109.52%
[15]
  Growth Percent COLO 205: 109.57%
[16]
  Growth Percent HCC-2998: 104.94%
[17]
  Growth Percent HCT-116: 85.66%
[18]
  Growth Percent HCT-15: 71.89%
[19]
  Growth Percent KM12: 97.06%
[20]
  Growth Percent HT29: 105.25%
[21]
  Growth Percent SF-268: 89.75%
[22]
  Growth Percent SF-539: 107.05%
[23]
  Growth Percent SNB-19: 105.92%
[24]
  Growth Percent SNB-75: 81.80%
[25]
  Growth Percent U251: 100.67%
[26]
  Growth Percent LOX IMVI: 70.96%
[27]
  Growth Percent MALME-3M: 113.06%
[28]
  Growth Percent M14: 94.23%
[29]
  Growth Percent UACC-62: 87.72%
[30]
  Growth Percent UACC-257: 104/27
[31]
  Growth Percent SK-MEL-2: 82.62%
[32]
  Growth Percent SK-MEL-28: 101.77%
[33]
  Growth Percent SK-MEL-5: 100.11%
[34]
  Growth Percent IGROV1: 99.91%
[35]
  Growth Percent OVCAR-3: 85.83%
[36]
  Growth Percent OVCAR-5: 122.58%
[37]
  Growth Percent OVCAR-8: 97.32%
[38]
  Growth Percent SK-OV-3: 110.30%
[39]
  Growth Percent 786-0: 102.97%
[40]
  Growth Percent A498: 83.74%
[41]
  Growth Percent ACHN: 98.70%
[42]
  Growth Percent SN12C: 95.93%
[43]
  Growth Percent TK-10: 130.80%
[44]
  Growth Percent UO-31: 75.49%
[45]
  Growth Percent RXF 393: 124.15%
[46]
  Growth Percent DU145: 98.87%
[47]
  Growth Percent PC-3: 75.99%
[48]
  Growth Percent MCF7: 72.77%
[49]
  Growth Percent HS 578T: 93.84%
[50]
  Growth Percent MDA-MB-231/ATCC: 87.08%
[51]
  Growth Percent MDA-MB-468: 93.53%
[52]
  Growth Percent NCI/ADR-RES: 92.67%
[53]
  Growth Percent BT-549: 94.91%
[54]
  Growth Percent T-47D: 69.09%
[55]
  Growth Percent MDA-MB-435: 72.50%
[56]; delta over all cell lines
  Growth Percent Delta: 55.47%
[56]; mean over all cell lines
  Growth Percent Mean: 91.30%
[56]; range over all cell lines
  Growth Percent Range: 94.97%

Source: US8877748B2, “Heterocyclic fused anthraquinone derivatives, manufacturing method and pharmaceutical composition using thereof” (National Defense Medical Center, priority 2012, dated 2014)
